Assay results reported in patent US6998415B2, “Substituted sulfonylphenylheterocycles as cyclooxygenase-2 and 5-lipoxygenase inhibitors” (Pharmacia Corporation, priority 1996, dated 2006).

Tests used:
COX-2 = target: T1, COX-2 (UniProt P35354); assay: Assay for COX-2 activity in vitro (PGE2 ELISA, recombinant enzyme); type: biochemical, human or murine; conditions: recombinant COX-2, arachidonic acid 10 μM, pre-incubation 10–20 minutes
T1 sequence (P35354 1-604): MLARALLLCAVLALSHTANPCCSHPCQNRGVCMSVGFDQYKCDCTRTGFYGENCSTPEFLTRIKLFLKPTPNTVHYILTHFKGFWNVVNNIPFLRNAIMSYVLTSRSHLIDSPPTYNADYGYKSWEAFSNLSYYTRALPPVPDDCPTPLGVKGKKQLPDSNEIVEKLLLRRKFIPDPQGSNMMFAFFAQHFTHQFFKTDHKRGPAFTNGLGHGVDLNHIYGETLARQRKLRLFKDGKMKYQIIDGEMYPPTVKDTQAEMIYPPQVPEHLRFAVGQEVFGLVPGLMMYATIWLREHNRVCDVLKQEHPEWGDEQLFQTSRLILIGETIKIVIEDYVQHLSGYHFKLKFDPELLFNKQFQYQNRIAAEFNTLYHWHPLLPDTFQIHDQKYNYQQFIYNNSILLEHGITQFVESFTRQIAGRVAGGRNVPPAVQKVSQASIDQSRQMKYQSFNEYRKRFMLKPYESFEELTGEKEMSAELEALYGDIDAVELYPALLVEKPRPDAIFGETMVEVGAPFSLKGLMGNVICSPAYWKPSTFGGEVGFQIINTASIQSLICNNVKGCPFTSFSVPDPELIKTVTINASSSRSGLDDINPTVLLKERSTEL
Description: Evaluation of COX-1 and COX-2 Activity in vitro
The COX-2 inhibit on activity of the compounds or this invention illustrated in the Examples was determined by the following methods. a. Preparation of Recombinant COX Baculoviruses
(§1) Recombinant COX-1 and COX-2 were prepared as described by Gierse et al, [J. Biochem., 305, 479–84 (1995)]. A 2.0 kb fragment containing the coding region of either human or murine COX-1 or human or murine COX-2 was cloned into a BamHI site of the baculovirus transfer vector pVL1393 (Invitrogen) to generate the baculovirus transfer vectors for COX-1 and COX-2 in a manner similar to the method of D. R. O'Reilly et al (Baculovirus Expression Vectors: A Laboratory Manual (1992)). Recombinant baculoviruses were isolated by transfecting 4 μg of baculovirus transfer vector DNA into SF9 insect cells (2×10^8) along with 200 ng of linearized baculovirus plasmid DNA by the calcium phosphate method. See M. D. Summers and G. E. Smith, A Manual of Methods for Baculovirus Vectors and Insect Cell Culture Procedures, Texas Agric. Exp. Station Bull. 1555 (1987). Recombinant viruses were purified by three rounds of plaque purification and high titer (10^7–10^8 pfu/ml) stocks of virus were prepared. For large scale production, SF9 insect cells were infected in 10 liter fermentors (0.5×10^6/ml) with the recombinant baculovirus stock such that the multiplicity of infection was 0.1. After 72 hours the cells were centrifuged and the cell pellet homogenized in Tris/Sucrose (50 mM: 25%, pH 8.0) containing 1% 3-[(3-cholamidopropyl)dimethylammonio]-1-propanesulfonate (CHAPS). The homogenate was centrifuged at 10,000×G for 30 minutes, and the resultant supernatant was stored at −80° C. before being assayed for COX activity. […]
(§2) b. Assay for COX-1 and COX-2 Activity
(§3) COX activity was assayed as PGE2 formed/μg protein/time using an ELISA to detect the prostaglandin released. CHAPS-solubilized insect cell membranes containing the appropriate COX enzyme were incubated in a potassium phosphate buffer (50 mM, pH 8.0) containing epinephrine, phenol, and heme with the addition of arachidonic acid (10 μM). Compounds were pre-incubated with the enzyme for 10–20 minutes prior to the addition of arachidonic acid. Any reaction between the arachidonic acid and the enzyme was stopped after ten minutes at 37° C./room temperature by transferring 40 μl of reaction mix into 160 μl ELISA buffer and 25 μM indomethacin. The PGE2 formed was measured by standard ELISA technology (Cayman Chemical).

COX-1 = COX-1 (UniProt P23219); assay: Assay for COX-1 activity in vitro (PGE2 ELISA, recombinant enzyme); type: biochemical, human or murine; conditions: recombinant COX-1, arachidonic acid 10 μM, pre-incubation 10–20 minutes
Description: Evaluation of COX-1 and COX-2 Activity in vitro a. Preparation of Recombinant COX Baculoviruses
as §1, §2, §3

[1] = test system: rat paw edema (carrageenan foot edema); assay: Rat carrageenan foot pad edema test; type: in vivo, rat (male Sprague-Dawley); conditions: dosed orally 1 h before carrageenan, foot volume 3 h after carrageenan
Description: Rat Carrageenan Foot Pad Edema Test
The carrageenan foot edema test was performed with materials, reagents and procedures essentially as described by winter, et al., (Proc. Soc. Exp. Biol. Med., 111, 544 (1962)). Male Sprague-Dawley rats were selected in each group so that the average body weight was as close as possible. Rats were fasted with free access to water for over sixteen hours prior to the test. The rats were dosed orally (1 mL) with compounds suspended in vehicle containing 0.5% methylcellulose and 0.025% surfactant, or with vehicle alone. One hour later a subplantar injection of 0.1 mL of 1% solution of carrageenan/sterile 0.9% saline was administered and the volume of the injected foot was measured with a displacement plethysmometer connected to a pressure transducer with a digital indicator. Three hours after the injection of the carrageenan, the volume of the foot was again measured. The average foot swelling in a group of drug-treated animals was compared with that of a group of placebo-treated animals and the percentage inhibition of edema was determined (Otterness and Bliven, Laboratory Models for Testing NSAIDs, in Non-steroidal Anti-Inflammatory Drugs, (J. Lombardino, ed. 1985)).

5-lipoxygenase (5-LO) = target: T2, 5-lipoxygenase (5-LO) (Homo sapiens, UniProt P09917); assay: Assay for 5-lipoxygenase activity: calcium ionophore-induced LTB4 production in human whole blood; type: cell-based; conditions: A-23187 (20 μg/ml)-induced LTB4 in human whole blood; mean IC50
T2 construct: calcium ionophore-induced Leukotriene B4 (LTB4) production in human whole blood; endogenous in cells; host or cells: human whole blood (healthy donors), diluted 1:4 in RPMI 1640
T2 sequence (P09917 1-674): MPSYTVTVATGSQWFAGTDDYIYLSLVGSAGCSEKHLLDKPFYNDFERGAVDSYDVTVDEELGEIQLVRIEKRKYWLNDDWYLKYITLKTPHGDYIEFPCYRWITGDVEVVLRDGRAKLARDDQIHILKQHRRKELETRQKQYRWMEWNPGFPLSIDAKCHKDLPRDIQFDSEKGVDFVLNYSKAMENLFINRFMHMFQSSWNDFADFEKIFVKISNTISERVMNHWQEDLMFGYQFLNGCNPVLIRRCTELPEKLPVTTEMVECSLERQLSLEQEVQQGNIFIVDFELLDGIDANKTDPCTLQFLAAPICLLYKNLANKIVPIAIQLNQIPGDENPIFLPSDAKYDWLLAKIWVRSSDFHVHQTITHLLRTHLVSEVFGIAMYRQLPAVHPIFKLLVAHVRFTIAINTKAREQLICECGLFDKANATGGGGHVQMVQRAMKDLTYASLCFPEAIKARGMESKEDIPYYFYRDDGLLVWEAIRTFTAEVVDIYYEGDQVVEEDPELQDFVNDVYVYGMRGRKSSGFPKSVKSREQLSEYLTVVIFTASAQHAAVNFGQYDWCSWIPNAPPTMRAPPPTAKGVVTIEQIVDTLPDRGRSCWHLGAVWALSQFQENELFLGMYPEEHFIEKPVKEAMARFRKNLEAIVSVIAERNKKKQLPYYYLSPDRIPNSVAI
Description: Assay for 5-Lipoxygenase Activity
The 5-lipoxygenase (5-LO) activity of the compounds were determined by the calcium ionophore-induced Leukotriene B4 (LTB4) production in human whole blood. Venous blood was collected from healthy human donors using heparin as an anti-coagulant. Human blood samples (0.2 ml of a 1:4 dilution in RPMI 1640 medium) were incubated in 96-well culture plates for 15 minutes at 37° C. with test compounds dissolved in ethanol (EtOH; final concentration<1%), or vehicle. Typically 7 concentrations of test compounds were examined in duplicate. A-23187 [Sigma] was added to the blood to a final concentration of 20 μg/ml, and the mixtures were incubated for 10 minutes at 37° C. The reaction was stopped by placing the samples on ice. The samples were then centrifuged at 800×g at 4° C. for 10 minutes to pellet the cells, and the supernatants were recovered for quantitation of LTB4 by LISA (Cayman Chemical Co.; sensitivity 3 pg/ml). IC50's were estimated from a four parameter logistic model with two parameters fixed, the minimum (0% inhibition) and maximum (100% inhibition). The IC50 value is the concentration that produces 50% inhibition between the fixed values of the minimum and maximum. Data is reported as the mean IC50 for each compound.

Row | IC50 (COX-2) [µM] | IC50 (COX-1) [µM] | IC50 (5-lipoxygenase (5-LO)) [µM] | melting point [°C] | Compound | RAT PAW EDEMA % Inhibition @ 10 mg/kg body weight [1] [%]
1 | < 0.1 | > 100 | 0.02 | – | COC1(c2cc(F)cc(OCc3nc(-c4ccc(F)cc4)c(-c4ccc(S(C)(=O)=O)cc4)o3)c2)CCOCC1 [Example 3, 4-(4-Fluorophenyl)-2-[[3-fluoro-5-(3,4,5,6-tetrahydro-4-methoxy-2H-pyran-4-yl)phenoxy)methyl]-5-(4-(methylsulfonyl)phenyl)oxazole] | 15
2 | < 0.1 | 2.3 | > 10 | 60.9 to 66.4 | COC1(c2cccc(CSCCc3nc(-c4ccccc4)c(-c4ccc(S(N)(=O)=O)cc4)o3)c2)CCOCC1 [Example 19, 4-[2-[[[3-(3,4,5,6-Tetrahydro-4-methoxypyran-4-yl)phenylmethyl]thio]ethyl]-4-phenyloxazol-5-yl]benzenesulfonamide] | –
3 | < 0.1 | 2.6 | > 10 | 74.7 to 78.5 | COC1(c2cccc(CSc3nc(-c4ccccc4)c(-c4ccc(S(N)(=O)=O)cc4)o3)c2)CCOCC1 [Example 21] | –
